We go through 5 compounds from patent publication US20090221530A1, “Relaxase Modulators and Methods of Using Same” (priority 2005, published 2009).

Common to all, as to assay type: cell-based, E. coli
In experiment [1] the test system is F+ or F− cells. The experiment in a line: 24 hr. MIC bounds (turbid/clear wells). Particulars: 8x serial dilutions, bounds identical for F+ or F− cells; for MIC: Escherichia coli.
For experiment [2], the system named is transconjugants. The experiment in a line: microbe, parasite or virus in culture. Particulars: for Selectivities by EC50, Donors: listed as vs. transconjugants relative to donors. An excerpt: (§1) A 96-well fluorescence-based assay using oxygen biosensor plates (Becton Dickinson, Franklin Lakes, N.J., U.S.A.) was employed to monitor bacterial cell survival. FIG. 7 schematically illustrates the assay mechanism of action. […] In the absence of viable bacteria, however, no fluorescence emission is detected because the fluorophore is quenched by free oxygen. The assay can further be utilized to measure conjugative DNA transfer.
(§2) Relaxase-dependent cell survival was examined by placing cultures of F+/TraI+ E. coli cells (with antibiotic resistance, e.g., Ab^r1, on a non-conjugative plasmid) within wells and exposing them to putative inhibitory compounds. […] Negative controls for this assay can be F− (Ab^r2) cells and F+ cells (Ab^r1) containing either no F plasmid relaxase (TraI) gene, or a TraI harboring catalytic tyrosine to phenylalanine mutations; in both cases, these control cells should be resistant to relaxase-dependent cell toxicity. […] Fluorescence can be measured using a PHERASTAR™ fluorescence plate reader (BMG LABTECH, Offenburg, Germany) over 8 hours time.

The subject of experiment [3] is F+ donor cells. The experiment is described as follows: microbe, parasite or virus in culture. Particulars: for Selectivities by EC50, Transconj.: listed as vs. F+ donor cells relative to transconjugants; for 100 minute EC50 / EC50: vs. F+ donor cells; for EC50: read-out: 100 minute EC50.
Source text: as §1, §2

Experiment [4] concerns F− recipient cells. The experiment is described as follows: microbe, parasite or virus in culture. Particulars: for Selectivities by EC50, Donors: listed as vs. F− recipient cells relative to donors; for Selectivities by EC50, Transconj.: listed as vs. F− recipient cells relative to transconjugants; for 100 minute EC50 / EC50: vs. F− recipient cells; for EC50: read-out: 100 minute EC50.
Source text: as §1, §2

The mark [5] stands for this setting: clear wells after 24 hr. incubation.
[6] abbreviates: turbid wells after 24 hr. incubation.
[7] abbreviates: vs. transconjugants, first EC50 block, mass concentration.
Setting [8] is: vs. transconjugants, first EC50 block, read-out: 100 minute EC50.
[9] abbreviates: vs. transconjugants, second block, mass concentration.
The mark [10] stands for this setting: vs. transconjugants, second block, read-out: 100 minute EC50.
[11] abbreviates: first EC50 block, mass concentration.
Setting [12] is: second block, mass concentration.
Setting [13] is: clear wells after 24 hr. incubation, read-out: 24 hr. MIC bounds, upper.
Setting [14] is: turbid wells after 24 hr. incubation, read-out: 24 hr. MIC bounds, lower.
Setting [15] is: Escherichia coli, 100 min, read-out: 100 minute EC50, vs. transconjugants, first EC50 block, mass concentration.
Setting [16] is: Escherichia coli, 100 min, read-out: 100 minute EC50, vs. transconjugants, second block.
The mark [17] stands for this setting: Escherichia coli, 100 min, read-out: 100 minute EC50, vs. transconjugants, second block, mass concentration.
Setting [18] is: Escherichia coli, 100 min, first EC50 block, mass concentration.
[19] abbreviates: Escherichia coli, 100 min, second block, mass concentration.
Where [20] appears, read: Escherichia coli, 100 min, second block.
Where [21] appears, read: Escherichia coli, 100 min, first EC50 block.

Converted amounts (≈) assume the structure as drawn. Read-outs that look alike come from different tables or passages of the source. Bounds are passed on as bounds.

By EC50 is commonly meant the midpoint of the concentration-response curve. For the compound `O=P(O)(O)CNCP(=O)(O)O` [Iminobis(methylphosphonate)], the “24 hr. MIC bounds, upper” value in experiment [1] (setting [5]) turned out to be 10 mM. Also, the “24 hr. MIC bounds, lower” value in experiment [1] (setting [6]) turned out to be 1.25 mM. In addition, the “Selectivities by EC50, Donors” value in experiment [2] (first EC50 block) stood at 1.2E+02; in experiment [4] (first EC50 block) it was 4.8E+05. The “100 minute EC50” value in experiment [2] (setting [7]) is 0.253 µg/mL; in experiment [2] (setting [9]) it was 2000 µg/mL; in experiment [3] (setting [11]), 0.002 µg/mL; in experiment [3] (setting [12]) it was above 2000 µg/mL; in experiment [4] (setting [11]) it was 1000 µg/mL; in experiment [4] (setting [12]) it was above 2000 µg/mL. Besides, the EC50 in experiment [2] (setting [8]) is 0.001 mM; in experiment [2] (setting [10]), 8 ± 0.5 mM; in experiment [3] (first EC50 block), 1e-05 mM; in experiment [3] (second block) it was above 10 mM; in experiment [4] (first EC50 block), 5 ± 3.3 mM; in experiment [4] (second block), above 10 mM. In addition, the “Selectivities by EC50, Transconj.” value was determined as 8.4E−03 in experiment [3] (first EC50 block) and 4.0E+03 in experiment [4] (first EC50 block).

Take `COP(=O)(OC)c1ccccc1P(=O)(OC)OC` [1,2-Bis(dimethoxyphosphoryl)benzene, 1,2-bis(dimethoxyphosphoryl)benzene]: the “24 hr. MIC bounds, upper” value in experiment [1] (setting [5]) is listed as 100 mM. Also, the “24 hr. MIC bounds, lower” value in experiment [1] (setting [6]) came out at 12.5 mM. Also, the entries for the “Selectivities by EC50, Donors” value in experiment [2] (first EC50 block) and in experiment [4] (first EC50 block) were 2.1E+02 and 3.3E+05, respectively. Also, the “100 minute EC50” value in experiment [2] (setting [7]) is 4 µg/mL; in experiment [2] (setting [9]), above 29000 µg/mL; in experiment [3] (setting [11]) it was 0.02 µg/mL; in experiment [3] (setting [12]) it was above 29000 µg/mL; in experiment [4] (setting [11]), 7000 µg/mL; in experiment [4] (setting [12]), above 29000 µg/mL. Also, the EC50 is 0.014 ± 0.0003 mM in experiment [2] (setting [8]); above 100 mM in experiment [2] (setting [10]); 6.8e-05 mM in experiment [3] (first EC50 block); above 100 mM in experiment [3] (second block); 22 mM in experiment [4] (first EC50 block); above 100 mM in experiment [4] (second block). In addition, the entries for the “Selectivities by EC50, Transconj.” value in experiment [3] (first EC50 block) and in experiment [4] (first EC50 block) were 4.8E−03 and 1.6E+03, respectively.

The term MIC denotes the lowest concentration found to suppress growth. `O=P(O)(O)C(Cl)(Cl)P(=O)(O)O` [Clodronate, reference compound]: the figures for the MIC in experiment [1] (setting [13]) and in experiment [1] (setting [14]) were 100 mM (≈ 24500 µg/mL) and 12.5 mM (≈ 3060 µg/mL), respectively. For the same compound, the EC50 in experiment [2] (Escherichia coli, 100 min, read-out: 100 minute EC50, vs. transconjugants, first EC50 block) is 0.038 mM; in experiment [2] (setting [15]), 9 µg/mL; in experiment [2] (setting [16]) it was 5 mM; in experiment [2] (setting [17]), 1000 µg/mL; in experiment [3] (setting [18]) it was 1 µg/mL; in experiment [3] (setting [19]), 7000 µg/mL. The EC50 in experiment [3] (setting [20]) is 30 mM; in experiment [4] (setting [18]) it was 365 µg/mL; in experiment [4] (setting [21]), 1 mM; in experiment [4] (setting [19]), above 24000 µg/mL; in experiment [4] (setting [20]), above 100 mM. Besides, the “Selectivities by EC50, Donors” value was found to be 9.2E+00 in experiment [2] (first EC50 block), 1.6E−01 in experiment [2] (second block) and 3.6E+02 in experiment [4] (first EC50 block). The “Selectivities by EC50, Transconj.” value worked out at 1.1E−01 in experiment [3] (first EC50 block), 6.1E+00 in experiment [3] (second block) and 3.9E+01 in experiment [4] (first EC50 block).

`CC(O)(P(=O)(O)O)P(=O)(O)O` [Etidronate, reference compound]: the MIC in experiment [1] (setting [13]) amounted to 12.5 mM (≈ 2580 µg/mL); in experiment [1] (setting [14]), 1.56 mM (≈ 321 µg/mL). The EC50 in experiment [2] (setting [15]) was 0.001 µg/mL; in experiment [2] (setting [16]), 1 mM; in experiment [2] (setting [17]), 210 µg/mL; in experiment [3] (setting [18]) it was 0.002 µg/mL; in experiment [3] (setting [21]), 8e-06 ± 2e-07 mM; in experiment [3] (setting [19]) it was 4000 µg/mL. For the same compound, the EC50 was found to be 20 mM in experiment [3] (setting [20]); 67 µg/mL in experiment [4] (setting [18]); 0.327 mM in experiment [4] (setting [21]); 9000 µg/mL in experiment [4] (setting [19]); 42 mM in experiment [4] (setting [20]). The “Selectivities by EC50, Donors” value turned out to be 7.3E−01 in experiment [2] (first EC50 block), 5.1E−02 in experiment [2] (second block), 4.3E+04 in experiment [4] (first EC50 block) and 2.1E+00 in experiment [4] (second block). For the same compound, the “Selectivities by EC50, Transconj.” value in experiment [3] (first EC50 block) worked out at 1.4E+00; in experiment [3] (second block), 2.0E+01; in experiment [4] (first EC50 block), 5.9E+04; in experiment [4] (second block), 4.1E+01.

Regarding Methylenediphosphonate, the “24 hr. MIC bounds, upper” value in experiment [1] (setting [5]) was 12.5 mM. Moreover, the “24 hr. MIC bounds, lower” value in experiment [1] (setting [6]) worked out at 1.56 mM. The “Selectivities by EC50, Donors” value in experiment [2] (first EC50 block) turned out to be 1.1E−02; in experiment [2] (second block), 5.5E−02; in experiment [4] (first EC50 block), 7.8E+01; in experiment [4] (second block) it was 1.9E+00. In addition, the “100 minute EC50” value in experiment [2] (setting [7]) came out at 0.017 µg/mL; in experiment [2] (setting [9]) it was 205 µg/mL; in experiment [3] (setting [11]), 1 µg/mL; in experiment [3] (setting [12]), 4000 µg/mL; in experiment [4] (setting [11]), 117 µg/mL; in experiment [4] (setting [12]) it was 7000 µg/mL. The EC50 in experiment [2] (setting [8]) is 9.6e-05 ± 1.23e-05 mM; in experiment [2] (setting [10]) it was 1 mM; in experiment [3] (first EC50 block), 0.008 mM; in experiment [3] (second block) it was 21 mM; in experiment [4] (first EC50 block) it was 0.667 ± 0.0001 mM; in experiment [4] (second block), 41 mM. The “Selectivities by EC50, Transconj.” value is 8.8E+01 in experiment [3] (first EC50 block), 1.8E+01 in experiment [3] (second block), 6.9E+03 in experiment [4] (first EC50 block) and 3.5E+01 in experiment [4] (second block).
